Tested on: brain myelination (myelin water fraction)
Assay: Cross-sectional correlation analysis (GLM) of infant formula nutrient composition against brain myelination, measured as MWF by mcDESPOT MRI
Assay type: in vivo, human
Conditions: for nutritional drivers for myelination (final general linear model): children up to 5 years fed different infant formulas during infancy, voxel-wise correlations, p<0.05 corrected
Protocol: MRI brain scans of infants and children between 0 and 5 years were acquired using a white matter imaging technique. This technique provides a quantitative measure, the Myelin Water Fraction (MWF), which is a surrogate marker of myelin content. When mapped as a function of time across early childhood, myelination trajectories can be generated.
Infant formula composition: six infant formulas fed to infants participating in study were analyzed for their composition/level of myelin-relevant nutrients.
Infants included in this study were drawn from a larger longitudinal study of normal brain and behavioral development: the Brown university Assessment of Myelination and Behavior Across Maturation (BAMBAM). To focus on neurotypical development, children with known potential risk factors for learning, neurologic, or psychiatric disorders were specifically excluded during recruitment and enrollment. Thus, children with in utero alcohol or illicit substance exposure, premature (<37 weeks gestation) or multiple birth, fetal ultrasound abnormalities, complicated pregnancy (e.g., preeclampsia), APGAR scores <8, NICU admission, neurological disorder (e.g., head injury, epilepsy), psychiatric or developmental disorders in the infant, parents or siblings (including maternal depression requiring medication) were excluded. Ongoing screenings, such as the MCAT for autism, or CBCL for behavioral problems, were further used to remove enrolled children with clinically concerning behaviors or overt medical conditions (such as autism spectrum disorders).
A combination of retrospective and prospective data were acquired from parents via detailed medical histories and parental interview on type of infant formula used, percentage of breastfeeding to formula feeding, and length of exclusive breastfeeding. This information was updated at each study visit, which occurred approximately every 6 months for children under 2 years, and yearly for older children. Using this information, children were categorized into one of 2 groups: #1. Exclusively formula-fed; and #2. Exclusively breastfed for at least 90 days (3 months). Children who were fed a combination of breastmilk and formula within 3 months were excluded from our analysis. Infants within the exclusively formula-fed group were further sub-divided based on parental reports of the main infant formula used throughout the first 3 months. Main formula was defined as that given 90% of the time or more (in the case were parents used an alternate brand during vacation, for example).
Using these criteria, 94 exclusively formula-fed infants and young children were selected into group #1. These included 13 children who received formula #2; 28 who received formula #5; 8 who received formula #3; 39 who received formula #4; 5 who received formula #1 and 1 who received formula #6. A sample of 52 exclusively breast-fed infants were also selected and matched to the over formula-fed group with regards to mean age, gestation duration, birth weight, male:female ratio, ethnicity ratio, maternal education, family size, and number of languages spoken in the home (in addition to English).
Each infant was scanned using the mcDESPOT (multicomponent Driven Equilibrium Single Pulse Observation of T1 and T2) white matter imaging technique Deoni et al. (Magn. Reson. Med. 2008, 60:1372-1387), which provides a quantitative measure of the myelin water fraction (MWF) at each imaging point throughout the brain. All infants were scanned during natural (i.e. non-sedated) sleep using acoustically-muffled mcDESPOT imaging protocols. Total imaging times ranged from 19 minutes for the youngest toddlers to 24 minutes for the older 4 year-old children.
All data were acquired on a Siemens 3T Tim Trio scanner equipped with a 12 channel head RF array.

Molecule | association with myelination (myelin water fraction) over time in the brain (children up to 5 years fed different infant formulas, in particular in the visual cortex) | nutritional drivers for myelination (final general linear model)
CCCCC/C=C\C/C=C\C/C=C\C/C=C\CCCC(=O)O [ARA, arachidonic acid] | significant association with myelination | –
[Ca] [Calcium] | – | identified drivers
C[N+](C)(C)CCO [Choline] | – | identified drivers
[Mg] [Magnesium] | – | identified drivers
[P] [Phosphorus] | – | identified drivers
Iron | – | identified drivers
Vitamin B12 | – | identified drivers
Zinc | – | identified drivers
sphingomyelin | – | identified drivers
